From patent publication US10189782B2, “Derivatives of indole for the treatment of cancer, viral infections and lung diseases” (BIOKINESIS, priority 2012, dated 2019)
pIC50: −log10 of the molar value. Like-named read-outs stand apart in the source and are kept apart here. One block for each compound: values may come before it.

How the values were obtained:
[1] = system: HCT-116; assay: Cytotoxicity on human cancer cells (WST-1), HCT-116; assay type: cell-based; conditions: HCT-116 colon cancer cells, WST-1 on D4
Protocol: (§1) Evaluation of Cytotoxicity Effects on Human Cancer Cells
(§2) The effects of the compounds of the invention on the viability of human cancer cells were studied on various human cancer cell lines of differing tissue origins (A549, NCI-H460: lung cancer; MDA-MB-231: breast cancer; HCT-116, HT-29: colon cancer; MIA-PaCa-2: pancreatic cancer; K562: leukaemia). All cell lines were obtained from ATCC or ECACC. Cells were cultured in the culture media described below, under a 37° C., 5% CO2 humidified atmosphere, according to a standard operating procedure.
HCT-116: Mc Coy's 5a+10% FBS+0.5 mM Ultraglutamine
(§3) On D0, the cells were plated in 90 μl in 96 wells plates at densities ranging from 500 to 5,000 cells per well.
(§4) Following addition of the test substance the cells were protected from light. The solvents (DMSO and specific control solvent were added at the maximal concentration: 10 μl/well (3 wells/condition)).
(§5) On D4, the Cell Proliferation Reagent WST-1 was added to each well (10 μl/well), according to a standard operating procedure. The cells were then incubated for 30 min to 4 h at 37° C.-5% CO2. After these incubations, the 96-well plates were shaken thoroughly for 1 min with Multiskan® EX apparatus (Thermo Labsystems, France). The absorbence was measured at 450 nm, the reference wavelength being 620 nm. […]

[2] = system: NCI-H460; assay: Cytotoxicity on human cancer cells (WST-1), NCI-H460; assay type: cell-based; conditions: NCI-H460 lung cancer cells, WST-1 on D4, read-out: IC50 (μM) NCIH460
Protocol: as §1, §2
NCI-H460: RPMI 1640+10% FBS+10 mM HEPES+1 mM Sodium pyruvate+2.5 g/l glucose
as §3, §4, §5

[3] = system: K562 cells; assay: Cytotoxicity on human cancer cells (WST-1), K562; assay type: cell-based; conditions: WST-1 on D4, read-out: K562 IC50
Protocol: as §1, §2, §3, §4
(§6) On D4, the Cell Proliferation Reagent WST-1 was added to each well (10 μl/well), according to a standard operating procedure. The cells were then incubated for 30 min to 4 h at 37° C.-5% CO2. After these incubations, the 96-well plates were shaken thoroughly for 1 min with Multiskan® EX apparatus (Thermo Labsystems, France). The absorbence was measured at 450 nm, the reference wavelength being 620 nm. The analysis of the results was performed with the Ascent software 2.6 (Thermo Labsystems, France), Microsoft Excel 2003 and GraphPad Prism 4.03 softwares to give the concentration of the compounds that induces the death of 50% of the cells (IC50).

[4] = system: MIA-PaCa-2; assay: Cytotoxicity on human cancer cells (WST-1), MIA-PaCa-2; assay type: cell-based; conditions: MIA-PaCa-2 pancreatic cancer cells, WST-1 on D4
Protocol: as §1, §2, §3, §4, §6

[5] = biological target: T1, Human recombinant MKlp2 motor domain1-519, His tagged (Homo sapiens, UniProt O95235); assay: Microtubule stimulated ATPase activity of the MKlp2 motor domain (Kinesin ELIPA Assay Kit); assay type: biochemical; conditions: read-out: MKIp2 IC50
T1 construct: Human recombinant MKlp2 motor domain1-519, His tagged; His; purchased Cytoskeleton MP05
T1 sequence (O95235 1-519): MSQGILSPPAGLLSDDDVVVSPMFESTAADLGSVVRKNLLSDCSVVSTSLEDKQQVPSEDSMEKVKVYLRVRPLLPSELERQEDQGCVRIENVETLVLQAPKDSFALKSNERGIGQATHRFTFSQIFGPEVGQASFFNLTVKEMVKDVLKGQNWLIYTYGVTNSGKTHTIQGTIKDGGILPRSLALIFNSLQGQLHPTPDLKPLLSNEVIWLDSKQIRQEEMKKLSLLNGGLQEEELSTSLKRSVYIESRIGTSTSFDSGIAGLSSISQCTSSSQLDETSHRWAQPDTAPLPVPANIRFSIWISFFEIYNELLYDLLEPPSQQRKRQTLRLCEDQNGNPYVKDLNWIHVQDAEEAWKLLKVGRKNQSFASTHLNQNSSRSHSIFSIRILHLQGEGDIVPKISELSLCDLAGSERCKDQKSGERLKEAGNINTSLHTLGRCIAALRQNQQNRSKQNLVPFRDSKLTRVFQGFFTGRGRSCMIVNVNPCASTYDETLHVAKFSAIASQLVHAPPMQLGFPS
Procedure, shortened: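 Microtubule-stimulated ATPase at 22° C, with free phosphate followed in real time by MESG/PNP coupled absorbance at 360 nm. Motor mix in Pipes-NaOH pH 7.0, MgCl2, 30 μM Tx with porcine brain microtubules; reaction started with 5 mM ATP stock at 20% of volume. Kinetic read: 21 readings, 30 s apart.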

[6] = system: MDA-MB-231; assay: Cytotoxicity on human cancer cells (WST-1), MDA-MB-231; assay type: cell-based; conditions: MDA-MB-231 breast cancer cells, WST-1 on D4
Protocol: as §1, §2, §3, §4, §6

[7] = system: human colon carcinoma HCT-116 xenografts; assay: Anti-tumor activity in nude mice bearing subcutaneous human colon carcinoma HCT-116 xenografts; assay type: in vivo
Protocol: The effects of one compound of the invention were studied on the tumor growth of human cancer cells in nude mice. […] The induction in nude mice was realized by subcutaneous injection in the right flank of each mouse of 10×10^6 HCT-116 cells in 200 μl serum-free medium. When the tumor volume reached 130 mm^3, mice were randomized in to 3 groups (10 mice/group).
Mice of group 2 were treated by intraperitoneal injection of cisplatin (diluted in NaCl 0.9%) at 4 mg/kg according to the treatment schedule 1Q3Dx3.
The body weight and tumor volume of mice were recorded twice a week until the end of the experiment.

[8] = system: human large lung carcinoma NCI-H460 xenografts; assay: Anti-tumor activity in nude mice bearing subcutaneous human large cell lung carcinoma NCI-H460 xenografts; assay type: in vivo
Protocol: In-Vivo Evaluation of Anti-Tumor Activity of Compound 38 in Nude Mice Bearing Subcutaneous Human Large Cell Lung Carcinoma NCI-11460 Xenografts Protocol:
The effects of one compound of the invention were studied on the tumor growth of human cancer cells in nude mice. The human large lung carcinoma NCI-H460 cell line was obtained from ATCC. The induction in nude mice was realized by subcutaneous injection in the right flank of each mouse with 5×10^6 NCI-H460 cells in 200 μl serum-free medium. When the tumor volume reached 80 mm^3, mice were randomized in 2 groups (10 mice/group).
Mice of group 1 were treated by intraperitoneal injection of vehicle (solutol HS15 at 38% in NaCl 0.9%) according to the treatment schedule 1Q1Dx17.
Mice of group 2 were treated by intraperitoneal injection of compound 38 (diluted in solutol HS15 at 38% in NaCl 0.9%) at 37.5 mg/kg according to the treatment schedule 1Q1Dx17.
The tumor volume was recorded twice a week until the end of the experiment.

[9] = system: A549; assay: Cytotoxicity on human cancer cells (WST-1), A549; assay type: cell-based; conditions: A549 lung cancer cells, WST-1 on D4
Protocol: as §1, §2, §3, §4, §5

[10] = system: HT-29; assay: Cytotoxicity on human cancer cells (WST-1), HT-29; assay type: cell-based; conditions: HT-29 colon cancer cells, WST-1 on D4
Protocol: as §1, §2
HT-29: Mc Coy's 5a+10% FBS+0.5 mM Ultraglutamine
as §3, §4, §5

[11] = Stability studies in human plasma; assay type: in vitro ADME; conditions: for Remaining compound 63 (%) (mean ± SEM, n = 2): Human plasma, 2 μM, 37° C.
Protocol: (§7) Stability Studies in Mouse or Human Plasma The study was to evaluate the stability of the disclosed compounds after incubation in mouse or human plasma and to measure the metabolites formed. For the disclosed compound, a stock solution was prepared at 200 μM in DMSO. This solution was then 100-fold diluted in 1 ml of mouse or human plasma in order to obtain the required concentration of 2 μM. One aliquot of 100 μl was taken (TO) and the remaining solution was incubated at 37° C. in water bath for 60 min, 120 min and 240 min. At the end of each incubation time 100 μl of plasma was taken, 100 μl of acetonitrile containing 0.1% of formic acid were added to each aliquot in order to stop the enzymatic reaction and to precipitate the proteins. Samples was vortexed/mixed and centrifuged 5 min at 16434.6 g (=14000 rpm) (4° C.). After centrifugation, the clear supernatant (at least 150 μl) was transferred into 1.2 ml HPLC glass vials and sealed. Samples were placed into the refrigerated autosampler and 20 μl were injected into a HPLC-MS/MS. The results are expressed with the percentage of test substance remaining by comparing area under specific chromatographic peak of test samples after incubation with area under specific chromatographic peak at TO (Tables 7 and 8 and FIGS. 1 and 2).

[12] = Stability studies in mouse plasma; assay type: in vitro ADME; conditions: for Remaining compound 63 (%) (mean ± SEM, n = 2): Mouse plasma, 2 μM, 37° C.
Protocol: as §7

[13] = HCT-116 xenograft nude mice, i.p., Cisplatin 4 mg/kg, Cpd 38 37.5 mg/kg, starting MBW 21 g
[14] = NCI-H460 xenograft nude mice, i.p. 37.5 mg/kg 1Q1Dx17, starting MBW 21 g

pIC50 ([5]; Table 3, 22° C.): 7.30
SMILES: COc1ccncc1/C=C(\C#N)c1c[nH]c2ccc(Br)cc12 [Example 5, (Z)-2-(5-bromo-1H-indol-3-yl)-3-(4-methoxypyridin-3-yl)acrylonitrile]
IC50 [1]: 0.7 µM
IC50 [2]: 0.9 µM
pIC50 ([3]; Table 4, K562 leukaemia cells): 6.10
IC50 [4]: 0.7 µM
IC50 [6]: 1.7 µM

SMILES: COc1ccc(C#N)cc1/C=C(\C#N)c1c[nH]c2ccc(Br)cc12 [Example 38, (Z)-3-(2-(5-bromo-1H-indol-3-yl)-2-cyanovinyl)-4-methoxybenzonitrile]
Antitumor activity (tumor volume, FIG. 3) ([7]; HCT-116 xenograft bearing nude mice, i.p., cisplatin 4 mg/kg, compound 38 37.5 mg/kg): Antitumor activity was observed
MBWC D 0-D 4 (mean body weight change) [7, 13]: -1.04 g
MBWC D 0-D 7 (mean body weight change) [7, 13]: -0.76 g
MBWC D 0-D 10 (mean body weight change) [7, 13]: -1.08 g
MBWC D 0-D 14 (mean body weight change) [7, 13]: -1.57 g
MBWC D 0-D 17 (mean body weight change) [7, 13]: -1.58 g
MBWC D 0-D 21 (mean body weight change) [7, 13]: -1.43 g
MBWC D 0-D 24 (mean body weight change) [7, 13]: -1.83 g
MBWC D 0-D 28 (mean body weight change) [7, 13]: -2.54 g
Tolerability of treatment ([7]; mouse, in vivo, ip, 37.5 mg/kg): well tolerated
IC50 [1]: 0.06 µM
IC50 [2]: 0.04 µM
pIC50 ([3]; Table 4, K562 leukaemia cells): 7.52
Antitumor activity (tumor volume, FIG. 4) ([8]; NCI-H460 xenograft bearing nude mice, 37.5 mg/kg i.p.): Antitumor activity was observed
MBWC D 0-D 3 (mean body weight change) [8, 14]: -0.96 g
MBWC D 0-D 4 (mean body weight change) [8, 14]: -1.76 g
MBWC D 0-D 7 (mean body weight change) [8, 14]: -1.82 g
MBWC D 0-D 10 (mean body weight change) [8, 14]: -2.12 g
MBWC D 0-D 14 (mean body weight change) [8, 14]: -1.83 g
MBWC D 0-D 17 (mean body weight change) [8, 14]: -1.55 g
Tolerability of treatment ([8]; nude mice bearing NCI-H460 xenograft, 37.5 mg/kg i.p.): well tolerated
IC50 [4]: 0.04 µM
pIC50 ([5]; Table 3, 22° C.): 6.70
IC50 [6]: 0.07 µM

pIC50 ([5]; Table 3, 22° C.): 6.70
SMILES: CN(C)c1ccc(C#N)cc1/C=C(\C#N)c1c[nH]c2ccc(Br)cc12 [Example 39, (Z)-3-(2-(5-bromo-1H-indol-3-yl)-2-cyanovinyl)-4-(dimethylamino)benzonitrile]
IC50 [9]: 0.5 µM
pIC50 ([3]; Table 4, K562 leukaemia cells): 6.22
IC50 [10]: 0.3 µM
IC50 [4]: 0.2 µM
IC50 [6]: 0.3 µM

Remaining compound 63 (%) (mean ± SEM, n = 2) ([11]; incubation time 0 min): 100.0 ± 0.0%
Remaining compound 63 (%) (mean ± SEM, n = 2) ([11]; incubation time 60 min): 49.2 ± 5.1%
Remaining compound 63 (%) (mean ± SEM, n = 2) ([11]; incubation time 120 min): 27.2 ± 5.4%
Remaining compound 63 (%) (mean ± SEM, n = 2) ([11]; incubation time 240 min): 21.2 ± 11.2%
half-life at 2 μM ([11]; human, plasma): ~60 min
Remaining compound 63 (%) (mean ± SEM, n = 2) ([12]; incubation time 0 min): 100.0 ± 0.0%
Remaining compound 63 (%) (mean ± SEM, n = 2) ([12]; incubation time 60 min): 9.0 ± 0.8%
Remaining compound 63 (%) (mean ± SEM, n = 2) ([12]; incubation time 120 min): 10.7 ± 8.7%
Remaining compound 63 (%) (mean ± SEM, n = 2) ([12]; incubation time 240 min): 4.9 ± 0.5%
half-life at 2 μM ([12]; mouse, plasma): ~33 min
pIC50 ([5]; Table 6 (prodrugs, formula II)): 4.97
SMILES: COc1ccc(C#N)cc1/C=C(\C#N)c1cn(C(=O)CN(C)C)c2ccc(Br)cc12 [Example 63]
pIC50 ([3]; Table 6 (prodrugs, formula II), K562 cells): 7.40
